Values after ≈ are worked out from the molar mass of the structure shown. Like-named read-outs stand apart in the source and are kept apart here.
Columns and labels:
Type in all cases: cell-based
Salm. typhi = test: Minimum inhibitory concentration by agar dilution, Salm. typhi; details: Salmonella enterica, 18 h
Description: (§1) (a) Trypticase soya medium (T.S.A.), which is very suitable for culturing the majority of microorganisms; it has the following composition:
(§2) (b) Ordinarily nutrient agar (N.A.), which is less rich in nutrients, corresponds to the following formulation: […]
(§3) Table I gives the minimum inhibitory concentrations (expressed in μg/cm^3) for the various microorganisms tested on each medium.
(§4) The products were tested on three Gram positive microorganisms (1 to 3) […] and on 10 Gram negative microorganisms (4 to 13).
(§5) Table (II) gives the minimum inhibitory concentrations of the compounds of Examples XII to XVI, determined on the agar medium, N.A., and expressed in μg/cm^3.

Sh. sonnei = test: Minimum inhibitory concentration by agar dilution, Sh. sonnei; details: Shigella sonnei, 37° C., 18 hours, read-out: minimum inhibitory concentration (M.I.C.)
Description: as §1, §2, §3, §4, §5

B. subtilis = test: Minimum inhibitory concentration by agar dilution, B. subtilis; details: Bacillus subtilis, 37° C., 18 hours, read-out: minimum inhibitory concentration (M.I.C.)
Description: as §1, §2, §3, §4, §5

Klebs. pneumoniae = test: Minimum inhibitory concentration by agar dilution, Klebs. pneumoniae; details: Klebsiella pneumoniae, 37° C., 18 hours, read-out: minimum inhibitory concentration (M.I.C.)
Description: as §1, §2, §3, §4, §5

Pr. vulgaris = test: Minimum inhibitory concentration by agar dilution, Pr. vulgaris; details: Proteus vulgaris
Description: as §1, §2, §3, §4, §5

Pr. morganii = test: Minimum inhibitory concentration by agar dilution, Pr. morganii; details: Morganella morganii
Description: as §1, §2, §3, §4, §5

B. pyocyaneus TUR = test: Minimum inhibitory concentration by agar dilution, B. pyocyaneus TUR; details: Pseudomonas aeruginosa, 37° C., 18 hours
Description: as §1, §2, §3, §4

Streptococcus = test: Minimum inhibitory concentration by agar dilution, Streptococcus Group A; details: 37° C., 18 hours, read-out: minimum inhibitory concentration (M.I.C.)
Description: as §1, §2, §3, §4, §5

Pr. mirabilis = test: Minimum inhibitory concentration by agar dilution, Pr. mirabilis; details: Proteus mirabilis, 37° C., 18 hours, read-out: minimum inhibitory concentration (M.I.C.)
Description: as §1, §2, §3, §4, §5

Staphylococcus 209 P = test: Minimum inhibitory concentration by agar dilution, Staphylococcus 209 P; details: Staphylococcus, 37° C., 18 hours, read-out: minimum inhibitory concentration (M.I.C.)
Description: as §1, §2, §3, §4, §5

Bord. bronchiseptica = test: Minimum inhibitory concentration by agar dilution, Bord. bronchiseptica; details: Bordetella bronchiseptica, 37° C., 18 hours, read-out: minimum inhibitory concentration (M.I.C.)
Description: as §1, §2, §3, §4, §5

[1] = test system: Gram-negative microorganisms; test: In vitro anti-microbial activity on agar media, overall; details: in vitro
Description: as §4

B. pyocyaneus A22 = test: Minimum inhibitory concentration by agar dilution, B. pyocyaneus A22; details: Pseudomonas aeruginosa, A22, 37° C., 18 hours, read-out: minimum inhibitory concentration (M.I.C.)
Description: as §1, §2, §3, §4, §5

Esch. Coli 95 = test: Minimum inhibitory concentration by agar dilution, Esch. Coli 95; details: Escherichia coli
Description: as §1, §2, §3, §4, §5

[2] = N.A. (nutrient agar, pH 6.8), Table I
[3] = T.S.A. (trypticase soya medium, pH 7.3)
[4] = 18 h, pH 7.3, read-out: minimum inhibitory concentration (M.I.C.)
[5] = N.A. (nutrient agar, pH 6.8), 37° C., 18 hours, Table I, read-out: minimum inhibitory concentration (M.I.C.)

**Q.** With `CCn1cc(C(=O)O)c(=O)c2cnc(N3CCN(Cc4ccccc4)CC3)nc21` [Example VII, 2-(4'-Benzyl-piperazino)-5-oxo-8-ethyl-5,8-dihydropyrido(2,3-d)pyrimidine-6-carboxylic acid] as the molecule, how does the MIC (Salm. typhi; pH 6.8, read-out: minimum inhibitory concentration (M.I.C.)) read?
**A.** The MIC was 1.6 µg/mL (≈ 4.07 µM).

**Q.** And the MIC (Salm. typhi; pH 7.3, read-out: minimum inhibitory concentration (M.I.C.))?
**A.** The MIC was 12.5 µg/mL (≈ 31.8 µM).

**Q.** And the MIC (Sh. sonnei; [2])?
**A.** Its MIC is 1.6 µg/mL (≈ 4.07 µM).

**Q.** And the MIC (Sh. sonnei; [3])?
**A.** Its MIC is 12.5 µg/mL (≈ 31.8 µM).

**Q.** And the MIC (B. subtilis; [2])?
**A.** The MIC was 0.4 µg/mL (≈ 1.02 µM).

**Q.** And the MIC (B. subtilis; [3])?
**A.** The MIC was 0.8 µg/mL (≈ 2.03 µM).

**Q.** What about the MIC (Klebs. pneumoniae; [2]) of the same molecule?
**A.** The MIC was 0.4 µg/mL (≈ 1.02 µM).

**Q.** And the MIC (Klebs. pneumoniae; [3])?
**A.** The MIC was 1.6 µg/mL (≈ 4.07 µM).

**Q.** What about the MIC (Pr. vulgaris; 18 h, pH 6.8, read-out: minimum inhibitory concentration (M.I.C.)) of the same molecule?
**A.** The MIC was 12.5 µg/mL (≈ 31.8 µM).

**Q.** What about the MIC (Pr. vulgaris; T.S.A. (trypticase soya medium, pH 7.3), 37° C., 18 hours, read-out: minimum inhibitory concentration (M.I.C.)) of the same molecule?
**A.** Its MIC is 50 µg/mL (≈ 127 µM).

**Q.** And the MIC (Pr. morganii; [4])?
**A.** Its MIC is 12.5 µg/mL (≈ 31.8 µM).

**Q.** What about the MIC (Pr. morganii; [5]) of the same molecule?
**A.** The MIC was 3.1 µg/mL (≈ 7.88 µM).

**Q.** What about the MIC (B. pyocyaneus TUR; [2]) of the same molecule?
**A.** Its MIC is 100 µg/mL (≈ 254 µM).

**Q.** What about the MIC (B. pyocyaneus TUR; T.S.A. (trypticase soya medium, pH 7.3), read-out: minimum inhibitory concentration (M.I.C.)) of the same molecule?
**A.** The MIC was over 100 µg/mL.

**Q.** And the MIC (Streptococcus; [2])?
**A.** The MIC was 0.8 µg/mL (≈ 2.03 µM).

**Q.** What about the MIC (Streptococcus; [3]) of the same molecule?
**A.** The MIC was 3.1 µg/mL (≈ 7.88 µM).

**Q.** And the MIC (Pr. mirabilis; [2])?
**A.** The MIC was 6.2 µg/mL (≈ 15.8 µM).

**Q.** And the MIC (Pr. mirabilis; [3])?
**A.** Its MIC is 100 µg/mL (≈ 254 µM).

**Q.** And the MIC (Staphylococcus 209 P; [2])?
**A.** Its MIC is 0.8 µg/mL (≈ 2.03 µM).

**Q.** And the MIC (Staphylococcus 209 P; [3])?
**A.** The MIC was 3.1 µg/mL (≈ 7.88 µM).

**Q.** And the MIC (Bord. bronchiseptica; [2])?
**A.** Its MIC is 3.1 µg/mL (≈ 7.88 µM).

**Q.** And the MIC (Bord. bronchiseptica; [3])?
**A.** The MIC was over 100 µg/mL.

**Q.** What about the “activity against Gram-negative microorganisms” value [1] of the same molecule?
**A.** Its value is “particularly active against Gram-negative microorganisms”.

**Q.** And the MIC (B. pyocyaneus A22; [2])?
**A.** The MIC was 100 µg/mL (≈ 254 µM).

**Q.** And the MIC (B. pyocyaneus A22; [3])?
**A.** The MIC was over 100 µg/mL.

**Q.** And the MIC (Esch. Coli 95; [4])?
**A.** Its MIC is 12.5 µg/mL (≈ 31.8 µM).

**Q.** What about the MIC (Esch. Coli 95; [5]) of the same molecule?
**A.** The MIC was 1.6 µg/mL (≈ 4.07 µM).

From patent US4129737A, “Process for the preparation of an 8-alkyl-5-oxo-5,8-dihydro-pyrido(2,3-d)pyrimidine-6-carboxylic acid” (priority 1972, dated 1978)
